Assay results published in patent US8754115B2, “Fungicidal pyrazoles” (E I du Pont de Nemours and Company, priority 2010, dated 2014).
Marks after values point to notes of the source that are not given here.

Columns and labels:
Type in all cases: in vivo
Botrytis cinerea = test: Test A: preventive spray on tomato seedlings, visual disease rating (tomato Botrytis)
Summary of the method: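 Tomato seedlings sprayed to run-off with 200 ppm suspension (800 g/ha; asterisk marks 40 ppm), inoculated next day with Botrytis cinerea spores, held 48 h saturated at 20 °C then 3 days at 24 °C. Visual rating: 100 = full disease control, 0 = none, relative to controls.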

[1] = tested on: Puccinia recondite f. sp. tritici; test: Test E2: preventive spray on wheat seedlings, visual disease rating (wheat leaf rust)
Summary of the method: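 Test suspension (acetone 3% of volume, acetone/water 50/50, 250 ppm Trem 014), 200 ppm unless starred (40 ppm), sprayed to run-off on wheat seedlings; inoculated next day with P. recondita spores. 24 h saturated atmosphere at 20 °C, then 7 days at 20 °C; visual rating, 100 = full control vs untreated.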

Alternaria solani = test: Test B: preventive spray on tomato seedlings, visual disease rating (tomato early blight)
Summary of the method: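 Compounds were suspended at 200 ppm (asterisked values at 40 ppm) in acetone/water with surfactant and sprayed to run-off on tomato seedlings, 200 ppm being equivalent to 800 g/ha. A. solani spores were inoculated the next day, with 48 h at 27 °C in saturated air, then 5 days at 20 °C. Disease control was rated visually, 0–100% relative to controls.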

[2] = tested on: Puccinia recondite f. sp. tritici; test: Test E1: curative spray on wheat seedlings after inoculation, visual disease rating (wheat leaf rust)
Summary of the method: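 Seedlings inoculated with rust spores, held 24 h in saturated atmosphere at 20 °C, then 2 days at 20 °C before curative spray to run-off with test suspension (200 ppm ≈ 800 g/ha, or 40 ppm where marked) in acetone/water with surfactant. Visual disease control rating (0–100) after 6 further days at 20 °C.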

[3] = tested on: Blumeria graminis f. sp. tritici; test: Test F: preventive spray on wheat seedlings, visual disease rating (wheat powdery mildew)
Summary of the method: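 Compound in acetone/water (50/50) with 250 ppm surfactant, sprayed to run-off on wheat seedlings at 200 ppm (≈800 g/ha) or, where marked, 40 ppm. Seedlings dusted with spores the next day, kept 8 days at 20° C., then rated visually as % disease control versus untreated plants.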

Septoria tritici = test: Test D: preventive spray on wheat seedlings, visual disease rating (wheat leaf blotch)
Summary of the method: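 Wheat seedlings were sprayed to run-off with a 200 ppm suspension (equal to 800 g/ha), or 40 ppm where marked with an asterisk, and inoculated with Septoria tritici spores the next day. Plants were kept at 24 °C in saturated air for 48 h, then at 20 °C for 19 days. Disease control was rated visually from 0 to 100 relative to controls.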

Septoria nodorum = test: Test C: preventive spray on wheat seedlings, visual disease rating (Septoria glume blotch)
Summary of the method: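 Wheat seedlings were sprayed to run-off with 200 ppm suspension (40 ppm where marked; 200 ppm ≈ 800 g/ha) in acetone/water with 250 ppm Trem 014, then inoculated next day with Septoria nodorum spores. Incubation was 48 h saturated at 24 °C, then 6 days at 20 °C; visual rating 0–100% disease control versus controls.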

[4] = no asterisk: standard test suspension, not 40 ppm, 100 = 100% disease control, 0 = none
[5] = no asterisk: standard test suspension, not 40 ppm
[6] = asterisk: 40 ppm test suspension

Molecule	Test A rating (% disease control) (Botrytis cinerea; [4]) [%]	Test E2 rating (% disease control) [1, 5] [%]	Test B rating (% disease control) (Alternaria solani; [5]) [%]	Test E1 rating (% disease control) [2, 5] [%]	Test F rating (% disease control) [3, 5] [%]	Test D rating (% disease control) (Septoria tritici; [5]) [%]	Test C rating (% disease control) (Septoria nodorum; [5]) [%]	Test A rating (% disease control) (Botrytis cinerea; [6])	Test E2 rating (% disease control) [1, 6]	Test B rating (% disease control) (Alternaria solani; [6])	Test E1 rating (% disease control) [2, 6]	Test F rating (% disease control) [3, 6]	Test D rating (% disease control) (Septoria tritici; [6])	Test C rating (% disease control) (Septoria nodorum; [6])
Cc1nn(C)c(-c2c(F)cc(F)cc2F)c1C(=O)c1ccc(F)cc1Cl [compound 59]	66	80	0	0	100	58	0							
Cc1nn(C)c(-c2c(F)cc(F)cc2F)c1C(=O)c1ccc(F)cc1F [compound 60]	75	55	0	0	99	0	0							
Cc1nn(C)c(-c2c(F)cc(F)cc2F)c1C(O)c1ccc(F)cc1Cl (stereo not shown) [compound 61]	100	100	100	99	100	100	99							
Cc1nn(C)c(-c2c(F)cccc2F)c1S(=O)(=O)c1ccc(Cl)cc1 [compound 62]	0	28	0	0	94	0	0							
Cc1nn(C)c(-c2c(F)cccc2F)c1[S+]([O-])c1ccc(Cl)cc1 (stereo not shown) [compound 63]	0	28	0	0	76	0	0							
Cc1nn(C)c(-c2c(F)cccc2F)c1Nc1ccc(F)cc1F [compound 64]	99	55	0	0	97	48	0							
Cc1nn(C)c(-c2c(F)cccc2F)c1Nc1ccc(Cl)cc1Cl [compound 65]	100	89	0	9	100	100	0							
Cc1nn(C)c(-c2c(F)cc(F)cc2F)c1C(O)c1ccc(F)cc1F (stereo not shown) [compound 66]	100	100	100	55	99	100	95							
Cc1nn(C)c(-c2c(Cl)cccc2Cl)c1C(O)c1ccc(F)cc1Cl (stereo not shown) [compound 69]	99	99	100	0	97	100	96							
Cc1nn(C)c(-c2ccccc2Br)c1C(=O)c1ccc(F)cc1Cl [compound 78]	0	79	31	0	99	0	40							
Cc1nn(C)c(-c2ccc(F)cc2Br)c1C(O)c1c(F)cc(F)cc1F (stereo not shown) [compound 82]	99	100	100	27	100	99	92							
Cc1nn(C)c(-c2ccc(F)cc2Br)c1C(=O)c1ccc(F)cc1Cl [compound 83]								55* %	74* %	0* %	0* %	99* %	25* %	0* %
Cc1nn(C)c(-c2c(F)cccc2Cl)c1C(O)c1c(Cl)cccc1Cl (stereo not shown) [compound 85]	97	100	84	9	50	100	0							
(2,4-difluorophenyl)-[5-(2,4-difluorophenyl)-1,3-dimethyl-1H-pyrazol-4-yl]methanone [Compound 32]	0	9	96	0	0	100	0							
α-(2,4-difluorophenyl)-5-(2,4-difluorophenyl)-1,3-dimethyl-1H-pyrazole-4-methanol [Compound 72]	100	40	0	0	99	99	0							
α-(2,4-difluorophenyl)-5-(2,6-difluorophenyl)-1,3-dimethyl-1H-pyrazole-4-methanol [Compound 14]	98	98	0	75	97	100	0							
